Measured values published in article PMC3048208 (British Journal of Cancer, 2011).
Counter-ions that a name gives are not always drawn.

Legend:
[1] = tested on: wide variety of cell lines; set-up: method as in Novotny-Diermayr et al, 2010; settings: in vitro; ref Novotny-Diermayr et al, 2010; cited from earlier work
[2] = tested on: acetylated histone H3 (AcH3) in PBMCs; test: AcH3 levels in PBMCs by western blot; assay type: in vivo, human
Procedure: Based on the preclinical data showing parallel changes in AcH3 in PBMCs and tumour tissue, PBMCs were selected for study in the phase I trial ([Novotny-Diermayr et al, 2008]; [Yong et al, 2009]).
Whole blood samples for PD evaluation were taken in cycle 1, days 1 and 15 at pre-dose followed by 3 and 24 h post-dose. For each sample, blood was collected at room temperature in an 8-ml BD Vacutainer CPT tube (Becton, Dickson and Company, Franklin Lakes, NJ, USA). Blood samples were processed in a refrigerated centrifuge within 30 min of collection to preserve histone acetylation status. PBMCs were extracted from blood, processed to pellet form and stored at −80°C. Levels of AcH3 in PBMCs were determined using a validated western blot technique ([Novotny-Diermayr et al, 2008]).

[3] = tested on: patients with solid tumours; set-up: method as in Yong et al, 2008; settings: three times weekly, 3 out of 4 weeks; ref Yong et al, 2008; cited from earlier work
[4] = set-up: method as in Novotny-Diermayr et al, 2010; settings: animal pre-clinical models; ref Novotny-Diermayr et al, 2010; cited from earlier work
[5] = tested on: other zinc-binding enzymes; set-up: method as in Novotny-Diermayr et al, 2010; settings: in vitro; ref Novotny-Diermayr et al, 2010; cited from earlier work
[6] = tested on: xenograft models of colon (HCT-116), ovarian (A2780) and prostate (PC3, DU145) carcinomas; set-up: method as in Novotny-Diermayr et al, 2010; settings: ref Novotny-Diermayr et al, 2010, cited from earlier work
HCT-116 cells = tested on: HCT-116 cells; set-up: method as in Novotny-Diermayr et al, 2010; settings: ref Novotny-Diermayr et al, 2010; cited from earlier work

CCCCc1nc2cc(/C=C/C(=O)NO)ccc2n1CCN(CC)CC [SB939, 3-[2-butyl-1-(2-diethylaminoethyl)-1H-benzoimidazol-5-yl]-N-hydroxyacrylami-hydrochloride]
Anti-proliferative activities [1]: significant anti-proliferative activities
Dose–PD relationship of AcH3 ([2]; 10 to 90 mg): no clear dose–PD relationship
Change in AcH3 in PBMCs ([2]; cycle 1, 3 h or 24 h post-treatment): Increases in AcH3 were seen
RPTD [3]: 60 mg
Increase in bioavailability compared with vorinostat [4]: > 4 fold
Longer half-life compared with vorinostat [4]: 3.3 fold
Effects on other zinc-binding enzymes [5]: no effects
Anti-tumour efficacy ([6]; HCT-116, A2780, PC3, DU145 xenografts, MV4-11, HL-60 and B cell lymphoma murine models): dose-dependent anti-tumour efficacy
Drug accumulation and inhibition of histone deacetylation in tumour tissues compared with vorinostat ([6]; preclinical experiments): prolonged drug accumulation and more sustained inhibition of histone deacetylation
Effectiveness compared with vorinostat (HCT-116 cells): more effective than vorinostat
